Laboratory results published in patent US12351587B2, “Bicyclic compound as RIP-1 kinase inhibitor and application thereof” (MEDSHINE DISCOVERY INC., priority 2019, dated 2025).

What was measured:
[1] = test system: All other kinases (411 of 413 kinases); experiment: Kinase selectivity assay (Eurofins, 33P radiolabeled kinase activity): all other kinases; format: biochemical; conditions: WX009 1 μM, ATP 10 μM
Experimental: The purpose of this assay was to detect the in vitro inhibitory activity of WX009 on a variety of kinases. The kinases used in this assay included 413 kinases, and the activity detection method was provided by Eurofins Pharma Discovery Service A method of detecting ^33P radiolabeled kinase activity was used for the assay. The concentration of WX009 was 1 μM, and the concentration of ATP was 10 μM.

[2] = Pharmacokinetic parameters in dogs; format: in vivo; conditions: beagle, plasma, dog
Experimental: Four healthy adult beagle dogs were selected and randomly divided into two groups. One group was given the assay compound by intravenous injection, and the other group was given the assay compound by gavage. Plasma samples were collected respectively from animals in the intravenous group and gavage group at 0.083, 0.25, 0.5, 1.0, 2.0, 4.0, 6.0, 8.0, 24 hours after administration. The blood concentration was determined by LC-MS/MS method. Relevant pharmacokinetic parameters were calculated by WinNonlin™ Version 6.3 (Pharsight. Mountain View, CA) pharmacokinetic software using non-compartmental model and linear logarithmic trapezoidal method. AUC0-last represents the area under the plasma concentration-time curve from zero time point to the last detectable concentration time point; Cmax represents the peak concentration; Tmax represents the time to reach the peak; T1/2 represents the half-life; CL represents the clearance rate; Vdss represents apparent volume of distribution; p.o. represents per os; i.v. represents intravenous injection; and F % represents oral bioavailability.

[3] = test system: TNF-α/zVAD induced systemic inflammatory response syndrome (SIRS); experiment: Mouse model of TNF-α induced systemic inflammatory response syndrome (SIRS); format: in vivo; conditions: 10 mpk by gavage
Experimental: Assay Example 4: In Vivo Efficacy Study in Mouse Model of Tumor Necrosis Factor (TNF-α) Induced Systemic Inflammatory Response Syndrome (SIRS)
Instruments and Materials • 1) Electronic balance: Brand Changzhou Tianzhiping Instrument Equipment Co., Ltd., Model JY20002 • 2) Anal thermometer. Brand PHYSITEMP, model BAT-12 Formulation of Reagents • 1) TNF-α: TNF-α was centrifuged quickly (10000 rmp, 30 s) before opening the lid. One bottle of TNF-α (1 mg) was dissolved in 1 mL of sterile water to prepare a mother liquor with a concentration of 1 mg/mL. The mother liquor was stored at 4° C. and cm be stored for one week, 1000 μL of the mother liquor was weighed and added to 5667 μL of sterile water, and then 333 mg of trehalose was added and dissolved to prepare a working solution. • 2) zVAD: […] of zVAD was weighed and added to 480 μL of DMSO, and the mixture was vortexed, sonicated, and heated at 37° C., and then 15.52 mL of physiological saline was added. A working solution with a concentration of 1.25 mu/mL was prepared. Assay Steps • 1) The mice were reared adaptively for 3 days, and then randomly grouped into cages, 5 mice in each cage. Ear tags were cut. • 2) Firstly, the mice were given the corresponding compound by gavage according to their body weight, and then injected intraperitoneally with zVAD at a dose of 250 μg per mouse. After the intraperitoneal injection of zVAD, the anal temperature was measured immediately (0 h), and the time was recorded. The time when mice were given zVAD was defined as the 0th hour (0 h). • 3) After 15 minutes, TNF-α was injected through the tail vein at a dose of 200 μL per mouse, and then the anal temperature was measured 15 minutes later (0.5 h). • 4) After 1 h, zVAD was injected intraperitoneally at a dose of 125 μg per mouse, and then the anal temperature was measured immediately (1 h). The anal temperature was measured again at 2 h, 3 h, and 4 h.

[4] = Pharmacokinetics in C57BL/6 mice; format: in vivo; conditions: C57BL/6, plasma, mouse
Experimental: Eight healthy adult C57BL/6 mice (6-9 weeks old, purchased from Shanghai Lingchang Biotechnology Co., Ltd.) were selected, and randomly divided into two groups, 4 mice in each group (n=2, cross blood sampling). One group was given 0.5 mg/kg of the assay compound by intravenous injection, and the other group was given 1 mg/kg of the assay compound by gavage. Plasma samples were collected respectively from animals in the intravenous group and gavage group at 0.083, 0.25, 0.5, 1.0, 2.0, 4.0, 6.0, 8.0, 24 hours after administration. The blood concentration was determined by LC-MS/MS method. Relevant pharmacokinetic parameters were calculated by WinNonlin™ Version 6.3 (Pharsight, Mountain View, CA) pharmacokinetic software using non-compartmental model and linear logarithmic trapezoidal method. AUC0-last represents the area under the plasma concentration-time curve from zero time point to the last detectable concentration time point; Cmax represents the peak concentration; Tmax represents the time to reach the peak; T1/2 represents the half-life. CL represents the clearance rate; Tlast represents the last quantifiable time point; p.o. represents per os; i.v. represents intravenous injection; and F % represents oral bioavailability.

With CN1C(=S)[C@@H](NC(=O)c2ncn(Cc3ccccc3)n2)COc2cccnc21 [WX009] the Inhibition rate [1] was <50%, the AUC(0-t) ([2]; 3 mg/kg, iv = 3 mpk) was 20.8 µM·h and the clearance ([2]; 3 mg/kg, iv = 3 mpk) was 6.2 mL/min/kg. For the same compound, the half-life ([2]; 3 mg/kg, iv = 3 mpk) was 330 min, the Vd ([2]; 3 mg/kg, iv = 3 mpk, read-out: Vdss) was 2.4 L/kg and the AUC(0-t) ([2]; 10 mg/kg, po = 10 mpk) was 23.6 µM·h. The Cmax ([2]; 10 mg/kg, po = 10 mpk) was 284 nM, the Tmax ([2]; 10 mg/kg, po = 10 mpk) was 2 h and the bioavailability ([2]; po = 10 mpk vs iv = 3 mpk) was 34.2%. The “4-hour survival rate of animals” value [3] was 100%, the “Decrease in mouse body temperature” value ([3]; 1 hour) was 0.94 °C and the “Decrease in mouse body temperature” value ([3]; 2 hours) was 1.2 °C. The “Decrease in mouse body temperature” value ([3]; 3 hours) was 1.42 °C, the “Decrease in mouse body temperature” value ([3]; 4 hours) was 1.52 °C and the AUC(0-t) ([4]; iv, i.v. 0.5 mg/kg) was 2.21 µM·h. The clearance ([4]; iv, i.v. 0.5 mg/kg) was 9.4 mL/min/kg, the half-life ([4]; iv, i.v. 0.5 mg/kg) was 84 min and the Vd ([4]; iv, i.v. 0.5 mg/kg, read-out: Vdss) was 1.1 L/kg. For the same compound, the bioavailability ([4]; oral, p.o. 1 mg/kg vs i.v. 0.5 mg/kg) was 89.1%, the AUC(0-t) ([4]; po, p.o. 1 mg/kg) was 3.85 µM·h and the Cmax ([4]; po, p.o. 1 mg/kg) was 1500 nM. It also gave a Tmax ([4]; po, p.o. 1 mg/kg) of 30 min.
